From publication PMC10112710 (Nature, 2022)
Where a chain is given by its changes, count along the chain named.

Assays:
Drosophila Sestrin [1] = target: T1, Drosophila Sestrin (Drosophila melanogaster, UniProt A0A0B4LGG4); format: binding; details: pH 7.4, on ice, 1 h; 150 mM KCl, 2.5 mM MgCl2, 0.1% Triton; Kd derived from IC50
T1 sequence (A0A0B4LGG4 1-467): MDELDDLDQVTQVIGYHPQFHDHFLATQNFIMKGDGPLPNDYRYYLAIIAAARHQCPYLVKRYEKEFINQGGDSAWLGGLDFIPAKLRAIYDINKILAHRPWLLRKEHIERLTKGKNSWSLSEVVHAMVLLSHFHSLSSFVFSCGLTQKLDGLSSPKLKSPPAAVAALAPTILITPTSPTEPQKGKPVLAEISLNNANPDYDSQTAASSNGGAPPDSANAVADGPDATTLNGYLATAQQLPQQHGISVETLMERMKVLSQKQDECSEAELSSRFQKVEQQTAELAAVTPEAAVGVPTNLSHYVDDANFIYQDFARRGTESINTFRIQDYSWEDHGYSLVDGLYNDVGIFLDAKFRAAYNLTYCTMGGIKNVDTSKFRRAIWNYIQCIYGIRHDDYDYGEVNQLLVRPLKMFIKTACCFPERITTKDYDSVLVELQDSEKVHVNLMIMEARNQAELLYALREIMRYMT

Drosophila Sestrin [2] = target: T2, Drosophila Sestrin (Drosophila melanogaster, UniProt A0A0B4LGG4, L431E); experiment: [3H]-leucine binding on immunopurified HA-tagged Sestrin; details: pH 7.4, on ice, 1 h; labelled compound; no binding detected
T2 sequence (A0A0B4LGG4 1-467 L431E): T1 sequence (A0A0B4LGG4 1-467) with L431E

Kd (Drosophila Sestrin [1]): ~100 µM
Structure (SMILES): CC(C)C[C@H](N)C(=O)O [leucine]
does not bind (Drosophila Sestrin [2]): fly Sestrin L431E does not bind leucine (Fig. 1b)
